Laboratory results as given in patent US20210392895A1, “NOVEL OXADIAZOLES” (PI INDUSTRIES LIMITED, priority 2018, published 2021).

Key:
Fusarium culmorum = Fusarium culmorum (foot rot of cereals) in vitro test, radial growth on Potato Dextrose Agar; assay type: cell-based; conditions: 168 h, 25° C., seven days, read-out: control compared to the untreated check (radial growth)
Pyricularia oryzae = test: microbe, parasite or virus in culture; assay type: cell-based; conditions: 168 h, read-out: control
Phakopsora pachyrhizi = Phakopsora pachyrhizi test in soybean (greenhouse, preventive activity, disease severity rating); assay type: in vivo; conditions: preventive spray on soybean, compared to the untreated check
Summary of the method: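 Greenhouse-raised young soybean plants sprayed with compound at stated rates, then inoculated one day later with 2.1×10^6 P. pachyrhizi spores and held at 25° C, 90% RH. Disease severity (0-100%) rated visually 3, 7, 10 and 15 days after application; % control calculated versus untreated plants.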

Colletotrichum capsici = Colletotrichum capsici (anthracnose) in vitro test, radial growth on Potato Dextrose Agar; conditions: Colletotrichum truncatum, 168 h, read-out: control
Description: Compounds were dissolved in 0.3% DMSO and then added to Potato Dextrose Agar medium just prior to dispensing it into petri dishes. 5 mL medium with compound in the desired concentration was dispensed into 60 mm sterile petri-plates. After solidification, each plate was seeded with a 5 mm size mycelial disc taken form the periphery of an actively growing virulent culture plate. Plates were incubated in growth chambers at 25° C. temperature and 60% relative humidity for seven days and radial growth was measured.

Alternaria solani = Alternaria solani (early blight of tomato/potato) in vitro test, radial growth on Potato Dextrose Agar; assay type: cell-based; conditions: 168 h, compared to the untreated check, radial growth after seven days, read-out: control
Rhizoctonia solani = Rhizoctonia solani (rice sheath blight/potato black scurf) in vitro test, radial growth on Potato Dextrose Agar; assay type: cell-based; conditions: 168 h, compared to the untreated check, radial growth after seven days, read-out: control
Botrytis cinerea = Botrytis cinerea (gray mold) in vitro test, radial growth on Potato Dextrose Agar; assay type: cell-based; conditions: 168 h, compared to the untreated check, radial growth after seven days, read-out: control
Corynespora cassicola = Corynespora cassicola (leaf spot of tomato) in vitro test, radial growth on Potato Dextrose Agar; assay type: cell-based; conditions: 168 h, compared to the untreated check, radial growth after seven days, read-out: control

O=C(c1cccnc1)N1CC[C@H](Oc2ccc(-c3noc(C(F)(F)F)n3)cc2)C1 [Compound 12, (S)-pyridin-3-yl(3-(4-(5-(trifluoromethyl)-1,2,4-oxadiazol-3-yl)phenoxy)pyrrolidin-1-yl)methanone]
> 70%: inhibition of growth at 300 ppm (Fusarium culmorum) | inhibition of growth at 300 ppm (Pyricularia oryzae) | pest or weed control at 500 ppm (Phakopsora pachyrhizi) | inhibition of growth at 300 ppm (Colletotrichum capsici) | inhibition of growth at 300 ppm (Alternaria solani) | inhibition of growth at 300 ppm (Rhizoctonia solani)

O=C(c1ccncc1)N1CC[C@H](Oc2ccc(-c3noc(C(F)(F)F)n3)cc2)C1 [Compound 13, (S)-pyridin-4-yl(3-(4-(5-(trifluoromethyl)-1,2,4-oxadiazol-3-yl)phenoxy)pyrrolidin-1-yl)methanone]
> 70%: inhibition of growth at 300 ppm (Fusarium culmorum) | inhibition of growth at 300 ppm (Pyricularia oryzae) | pest or weed control at 500 ppm (Phakopsora pachyrhizi) | inhibition of growth at 300 ppm (Colletotrichum capsici) | inhibition of growth at 300 ppm (Alternaria solani) | inhibition of growth at 300 ppm (Rhizoctonia solani) | inhibition of growth at 300 ppm (Botrytis cinerea)

O=C(Cc1ccccn1)N1CC[C@H](Oc2ccc(-c3noc(C(F)(F)F)n3)cc2)C1 [Compound 55, (S)-2-(pyridin-2-yl)-1-(3-(4-(5-(trifluoromethyl)-1,2,4-oxadiazol-3-yl)phenoxy)pyrrolidin-1-yl)ethan-1-one]
> 70%: inhibition of growth at 300 ppm (Corynespora cassicola) | inhibition of growth at 300 ppm (Fusarium culmorum) | inhibition of growth at 300 ppm (Pyricularia oryzae) | inhibition of growth at 300 ppm (Colletotrichum capsici) | inhibition of growth at 300 ppm (Rhizoctonia solani) | inhibition of growth at 300 ppm (Botrytis cinerea)

O=C(c1ccncc1)N1CC[C@H](Oc2ccc(-c3noc(C(F)(F)F)n3)c(F)c2)C1 [Compound 66, (S)-(3-(3-fluoro-4-(5-(trifluoromethyl)-1,2,4-oxadiazol-3-yl)phenoxy)pyrrolidin-1-yl)(pyridin-4-yl)methanone]
> 70%: inhibition of growth at 300 ppm (Corynespora cassicola) | inhibition of growth at 300 ppm (Fusarium culmorum) | inhibition of growth at 300 ppm (Pyricularia oryzae) | inhibition of growth at 300 ppm (Colletotrichum capsici) | inhibition of growth at 300 ppm (Alternaria solani) | inhibition of growth at 300 ppm (Rhizoctonia solani) | inhibition of growth at 300 ppm (Botrytis cinerea)

Cc1ccc(CN2CC[C@H](Oc3ccc(-c4noc(C(F)(F)F)n4)cc3)C2)cc1 [Compound 163, (S)-3-(4-((1-(4-methylbenzyl)pyrrolidin-3-yl)oxy)phenyl)-5-(trifluoromethyl)-1,2,4-oxadiazole]
> 70%: inhibition of growth at 300 ppm (Corynespora cassicola) | inhibition of growth at 300 ppm (Pyricularia oryzae) | inhibition of growth at 300 ppm (Alternaria solani) | inhibition of growth at 300 ppm (Rhizoctonia solani) | inhibition of growth at 300 ppm (Botrytis cinerea)

CC(=O)N1CC[C@@H](Sc2ccc(-c3noc(C(F)(F)F)n3)cc2)C1 [Compound 165, (R)-1-(3-((4-(5-(trifluoromethyl)-1,2,4-oxadiazol-3-yl)phenyl)thio)pyrrolidin-1-yl)ethan-1-one]
> 70%: inhibition of growth at 300 ppm (Corynespora cassicola) | inhibition of growth at 300 ppm (Pyricularia oryzae) | inhibition of growth at 300 ppm (Colletotrichum capsici) | inhibition of growth at 300 ppm (Alternaria solani) | inhibition of growth at 300 ppm (Rhizoctonia solani) | inhibition of growth at 300 ppm (Botrytis cinerea)

FC(F)(F)c1nc(-c2ccc(O[C@H]3CCN(Cc4ccc(Cl)cc4)C3)cc2)no1 [Compound 180, (S)-3-(4-((1-(4-chlorobenzyl)pyrrolidin-3-yl)oxy)phenyl)-5-(trifluoromethyl)-1,2,4-oxadiazole]
> 70%: inhibition of growth at 300 ppm (Corynespora cassicola) | inhibition of growth at 300 ppm (Pyricularia oryzae) | inhibition of growth at 300 ppm (Colletotrichum capsici) | inhibition of growth at 300 ppm (Alternaria solani) | inhibition of growth at 300 ppm (Botrytis cinerea)

O=C(c1cocn1)N1CC[C@H](Oc2ccc(-c3noc(C(F)(F)F)n3)cn2)C1 [Compound 199, (S)-oxazol-4-yl(3-((5-(5-(trifluoromethyl)-1,2,4-oxadiazol-3-yl)pyridin-2-yl)oxy)pyrrolidin-1-yl)methanone]
> 70%: inhibition of growth at 300 ppm (Fusarium culmorum) | inhibition of growth at 300 ppm (Pyricularia oryzae) | inhibition of growth at 300 ppm (Colletotrichum capsici) | inhibition of growth at 300 ppm (Alternaria solani)
